From patent publication US20260184663A1, “INDENE COMPOUNDS, PHARMACEUTICAL COMPOSITIONS THEREOF, AND THEIR THERAPEUTIC APPLICATIONS” (NucMito Pharmaceuticals co. Ltd., priority 2022, published 2026)

Tests used:
Format in all cases: cell-based
[1] = tested on: A431 (epidermoid carcinoma); assay: Antiproliferative activity (CCK-8 cell viability), A431; details: Homo sapiens, 72 h, read-out: Antiproliferative activity in cancerous cells, A431 (inhibition of cell growth); for inhibition at 3.3 µM: A-431, Compound concentration: 3.3 μM; for inhibition at 10 µM: A-431, Compound concentration: 10 μM
Outline: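 This growth inhibition assay used A431 cells maintained in Dulbecco's modified Eagle's medium plus 10% fetal bovine serum. Cells were seeded in 96-well plates, treated with compound for 72 h at 37° C., and then given 10 μL CCK-8 solution. After a further 4 h, absorbance was read at 450 nm.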

[2] = tested on: alpha-smooth muscle actin (α-SMA); assay: Inhibition of TGF-β induced expression of alpha-smooth muscle actin (α-SMA) in CFSC cells (western blot); details: compound at 10 μM, TGF-β (10 ng/mL), 24 hours, band intensity vs TGF-β only
Outline: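 CFSC hepatic stellate cells in serum-free DMEM treated 24 h at 37 °C with compound at 10 μM plus TGF-β (10 ng/mL). α-SMA measured by Western blot with β-actin, ECL detection, densitometry. Percent inhibition is decrease in band intensity versus TGF-β-only cells.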

[3] = tested on: MDA-MB-231 (breast cancer); assay: Antiproliferative activity (CCK-8 cell viability), MDA-MB-231; details: Homo sapiens, 72 h, read-out: Antiproliferative activity in cancerous cells, MDA-MB-231 (inhibition of cell growth); for inhibition at 3.3 µM: Compound concentration: 3.3 μM; for inhibition at 10 µM: Compound concentration: 10 μM
Outline: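 Growth inhibition of human MDA-MB-231 breast cancer cells was assessed with a Cell Counting Kit-8. Cells cultured in DMEM plus 10% FBS were seeded at 2,000-5,000 cells/well, treated after attachment, and kept 72 h at 37° C. CCK-8 solution (10 μL) was added for 4 h, and absorbance at 450 nm was compared with DMSO-treated controls.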

SW480 (colon cancer) = assay: Antiproliferative activity (CCK-8 cell viability), SW480; details: Homo sapiens, 72 h, read-out: Antiproliferative activity in cancerous cells, SW480 (inhibition of cell growth); for inhibition at 3.3 µM: Compound concentration: 3.3 μM; for inhibition at 10 µM: Compound concentration: 10 μM
Outline: (§1)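 Growth inhibition graded in bands from percent viability against DMSO vehicle, read as CCK-8 absorbance at 450 nm. Compound tested at 3.3, 10 or 30 μM for 72 h, 37 °C; media contained 10% FBS: DMEM for HepG2/SW480, MEM for HeLa, F-12K for A549.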

HepG2 (liver cancer) = assay: Antiproliferative activity (CCK-8 cell viability), HepG2; details: Homo sapiens, 72 h; for inhibition at 3.3 µM: Compound concentration: 3.3 μM; for inhibition at 3.3 µM / inhibition at 10 µM: read-out: Antiproliferative activity in cancerous cells, HepG2 (inhibition of cell growth); for inhibition at 10 µM: Compound concentration: 10 μM
Outline: as §1

[4] = tested on: B16F10 (malignant melanoma); assay: Antiproliferative activity (CCK-8 cell viability), B16F10; details: Mus musculus, 72 h, read-out: Antiproliferative activity in cancerous cells, B16F10 (inhibition of cell growth); for inhibition at 3.3 µM: B16-F10, Compound concentration: 3.3 μM; for inhibition at 10 µM: B16-F10, Compound concentration: 10 μM
Outline: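 Cell growth inhibition was measured in B16F10 malignant melanoma cells with a Cell Counting Kit-8 viability assay. Cells were maintained in DMEM plus 10% fetal bovine serum, seeded at 2,000-5,000 cells/well in 96-well plates, and treated for 72 h at 37° C. Viability was expressed relative to DMSO-treated vehicle control wells.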

HeLa (cervical cancer) = assay: Antiproliferative activity (CCK-8 cell viability), HeLa; details: Homo sapiens, 72 h, read-out: Antiproliferative activity in cancerous cells, HELA (inhibition of cell growth); for inhibition at 3.3 µM: Compound concentration: 3.3 μM; for inhibition at 10 µM: Compound concentration: 10 μM
Outline: as §1

[5] = tested on: A549 (lung adenocarcinoma); assay: Antiproliferative activity (CCK-8 cell viability), A549; details: Homo sapiens, 72 h, read-out: Antiproliferative activity in cancerous cells, A549 (inhibition of cell growth); for inhibition at 3.3 µM: Compound concentration: 3.3 μM; for inhibition at 10 µM: Compound concentration: 10 μM
Outline: as §1

Structure (SMILES)	inhibition at 3.3 µM [1]	inhibition at 10 µM [1]	inhibition at 10 µM [2]	inhibition at 3.3 µM [3]	inhibition at 10 µM [3]	inhibition at 3.3 µM (SW480 (colon cancer))	inhibition at 10 µM (SW480 (colon cancer))	inhibition at 3.3 µM (HepG2 (liver cancer))	inhibition at 10 µM (HepG2 (liver cancer))	inhibition at 30 µM (HepG2 (liver cancer); Compound concentration: 30 μM, read-out: Antiproliferative activity in cancerous cells, HepG2)	inhibition at 3.3 µM [4]	inhibition at 10 µM [4]	inhibition at 3.3 µM (HeLa (cervical cancer))	inhibition at 10 µM (HeLa (cervical cancer))	inhibition at 3.3 µM [5]	inhibition at 10 µM [5]
COc1ccc2c(c1)C(CC(=O)O)=C(C)/C2=C/c1cccc(COc2ccc(F)cc2)c1 [B24, (Z)-2-(1-(3-((4-Fluorophenoxy)methyl)benzylidene)-5-methoxy-2-methyl-1H-inden-3-yl)acetic acid]	< 30%	< 30%	> 80%	30 to 50%	≥ 50%	< 30%	< 30%	< 30%	< 30%	30 to 50%	< 30%	≥ 50%	< 30%	< 30%	30 to 50%	≥ 50%
CC1=C(CC(=O)O)c2cc(F)ccc2/C1=C\c1ccccc1OCc1ccccc1 [B28, (Z)-2-(1-(2-(Benzyloxy)benzylidene)-5-fluoro-2-methyl-1H-inden-3-yl)acetic acid]	≥ 50%	≥ 50%	> 80%	30 to 50%	≥ 50%	30 to 50%	≥ 50%	≥ 50%	≥ 50%	–	< 30%	30 to 50%	≥ 50%	≥ 50%	30 to 50%	≥ 50%
COc1ccc(/C=C2/C(C)=C(CC(=O)O)c3cc(F)ccc32)c(OCc2ccccc2)c1 [B29, (Z)-2-(1-(2-(Benzyloxy)-4-methoxybenzylidene)-5-fluoro-2-methyl-1H-inden-3-yl)acetic acid]	< 30%	≥ 50%	> 80%	30 to 50%	30 to 50%	< 30%	< 30%	< 30%	≥ 50%	–	< 30%	≥ 50%	< 30%	≥ 50%	< 30%	< 30%
COc1ccc2c(c1)/C(=C\c1ccc(Oc3ccc(F)cc3)cc1)C(C)=C2CC(=O)O [C1, (Z)-2-(1-(4-(4-Fluorophenoxy)benzylidene)-6-methoxy-2-methyl-1H-inden-3-yl)-acetic acid]	30 to 50%	≥ 50%	> 80%	≥ 50%	≥ 50%	≥ 50%	≥ 50%	< 30%	< 30%	–	30 to 50%	≥ 50%	≥ 50%	≥ 50%	< 30%	< 30%
COc1ccc2c(c1)/C(=C\c1ccc(Oc3ccc(F)cc3)cc1)C=C2CC(=O)O [C2, (Z)-2-(1-(4-(4-Fluorophenoxy)benzylidene)-6-methoxy-1H-inden-3-yl)acetic acid]	30 to 50%	≥ 50%	> 80%	≥ 50%	≥ 50%	≥ 50%	30 to 50%	30 to 50%	30 to 50%	–	< 30%	≥ 50%	30 to 50%	≥ 50%	< 30%	< 30%
